The values that follow come from patent US10758534B2 (Vertex Pharmaceuticals Incorporated, priority 2014, dated 2020).

For the test, the target named is T1, F508del (Homo sapiens, UniProt P13569, DEL508-508).
T1 construct: expressed in transfected cells
Description: Protocol 2: FRET membrane potential optical assay (VIPR), identification of correction compounds. Type of test: cell-based. Put shortly:
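Single-addition HTS format: F508del-expressing NIH3T3 cells pre-incubated 16 hrs at 37° C. ± compound, with 27° C. culture as positive control. Channel activation by forskolin 10 μM and genistein 20 μM upon switch to gluconate bath, pH 7.4; read-out is FRET-based depolarization signal.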

[1] abbreviates: F508del CFTR modulator activity, compounds of Table 1, read-out: EC30.
The mark [2] stands for this setting: Table 3, compounds of Table 1 as modulators of CFTR activity, protocol not stated.

Read-outs that look alike come from different tables or passages of the source.

T1 sequence (P13569 with tags, fused parts or gaps DEL508-508): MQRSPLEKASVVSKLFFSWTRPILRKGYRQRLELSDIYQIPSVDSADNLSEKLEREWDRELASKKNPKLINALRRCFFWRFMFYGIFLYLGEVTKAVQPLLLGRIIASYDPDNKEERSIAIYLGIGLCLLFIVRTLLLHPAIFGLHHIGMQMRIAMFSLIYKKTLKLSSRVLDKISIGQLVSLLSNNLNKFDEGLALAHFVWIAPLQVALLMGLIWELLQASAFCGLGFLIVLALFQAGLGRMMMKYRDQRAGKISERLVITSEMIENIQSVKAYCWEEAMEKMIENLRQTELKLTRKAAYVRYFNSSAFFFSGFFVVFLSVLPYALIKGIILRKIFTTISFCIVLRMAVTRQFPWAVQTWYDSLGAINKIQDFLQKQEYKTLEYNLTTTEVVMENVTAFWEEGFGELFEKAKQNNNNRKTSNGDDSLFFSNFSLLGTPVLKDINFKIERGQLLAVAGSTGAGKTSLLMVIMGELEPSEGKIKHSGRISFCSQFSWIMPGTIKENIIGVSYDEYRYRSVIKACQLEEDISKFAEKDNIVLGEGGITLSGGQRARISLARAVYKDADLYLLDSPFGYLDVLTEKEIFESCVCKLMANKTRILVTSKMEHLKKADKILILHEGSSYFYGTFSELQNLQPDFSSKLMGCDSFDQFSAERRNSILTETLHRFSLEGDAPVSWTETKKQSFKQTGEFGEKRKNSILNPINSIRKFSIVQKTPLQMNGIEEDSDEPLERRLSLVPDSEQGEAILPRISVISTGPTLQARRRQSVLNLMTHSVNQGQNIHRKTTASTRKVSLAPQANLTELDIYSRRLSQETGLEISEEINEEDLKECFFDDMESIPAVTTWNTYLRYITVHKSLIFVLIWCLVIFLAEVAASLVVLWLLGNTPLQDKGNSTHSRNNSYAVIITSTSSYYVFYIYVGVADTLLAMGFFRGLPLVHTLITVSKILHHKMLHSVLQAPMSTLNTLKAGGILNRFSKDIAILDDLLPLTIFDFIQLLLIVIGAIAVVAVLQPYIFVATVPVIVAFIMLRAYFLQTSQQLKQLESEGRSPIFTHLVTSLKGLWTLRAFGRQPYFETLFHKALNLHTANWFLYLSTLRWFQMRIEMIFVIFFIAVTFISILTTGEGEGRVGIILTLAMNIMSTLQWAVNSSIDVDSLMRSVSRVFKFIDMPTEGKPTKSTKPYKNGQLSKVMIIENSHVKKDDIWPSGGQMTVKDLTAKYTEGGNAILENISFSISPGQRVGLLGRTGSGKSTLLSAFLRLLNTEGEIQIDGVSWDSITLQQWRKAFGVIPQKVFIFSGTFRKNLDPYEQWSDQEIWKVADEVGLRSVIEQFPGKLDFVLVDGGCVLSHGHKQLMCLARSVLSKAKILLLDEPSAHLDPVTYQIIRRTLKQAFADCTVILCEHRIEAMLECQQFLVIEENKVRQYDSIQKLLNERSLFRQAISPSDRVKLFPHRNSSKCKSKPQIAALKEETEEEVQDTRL

Regarding `CCCN(CC1CC1)c1cccc(S(=O)(=O)NC(=O)c2cccnc2N2CC(C)CC2(C)C)n1` (stereo not shown) [Compound 2723], the EC30 under setting [1] was less than 3 µM.

For the compound `Cc1cc(-c2ccc(C(=O)NS(=O)(=O)c3cccc(N)n3)c(N3C[C@@H](C)CC3(C)C)n2)cnc1N(C)C(C)C` [Compound 2684], the EC30 under setting [1] was less than 3 µM.

Consider `CCCCN(C)c1cccc(S(=O)(=O)NC(=O)c2cccnc2N2CC(C)CC2(C)C)n1` (stereo not shown) [Compound 2307, N—[[6-[butyl(methyl)amino]-2-pyridyl]sulfonyl]-2-(2,2,4-trimethylpyrrolidin-1-yl)pyridine-3-carboxamide], for which the EC30 under setting [1] was less than 3 µM.

Turning to `C[C@@H]1CN(c2nc(C(C)(C)C)c(C(O)C(O)C3CCCCC3)cc2C(=O)NS(=O)(=O)c2cccc(N)n2)C(C)(C)C1` (stereo partly shown) [Compound 2475], under setting [1], the concentration for an effect of 30% (EC30) is less than 3 µM.

For `Cc1ccccc1Oc1nc(-c2cc(F)cc(OCC(C)C)c2)ccc1C(=O)NS(=O)(=O)c1ccn[nH]1` [Compound 738, 6-(3-fluoro-5-isobutoxy-phenyl)-2-(2-methylphenoxy)-N-(1H-pyrazol-5-ylsulfonyl)pyridine-3-carboxamide], the EC30 entry under setting [2] is “+++ (“+++” means <3 uM)”.

Turning to `Cc1ccc(-c2nc(C(C)(C)C)ccc2C(=O)NS(=O)(=O)c2cccc(N)n2)cc1` [Compound 58, N-[(6-amino-2-pyridyl)sulfonyl]-6-tert-butyl-2-(p-tolyl)pyridine-3-carboxamide], the EC30 entry under setting [2] was “++ (“++” means between 3 uM and 10 uM)”.

`Cc1cccc(C)c1Cn1nc(-c2cccc3c2ccn3C)cc1C(=O)NS(=O)(=O)c1ccccc1` [Compound 363, N-(benzenesulfonyl)-2-[(2,6-dimethylphenyl)methyl]-5-(1-methylindol-4-yl)pyrazole-3-carboxamide]: the EC30 result under setting [2] is “+++ (“+++” means <3 uM)”.

Turning to `Cc1ccc(-c2ccc(C(=O)NS(=O)(=O)c3ccc[nH]c3=O)c(N3C[C@@H](C)CC3(C)C)n2)c(C)c1` [Compound 2037, 6-(2,4-dimethylphenyl)-N-[(2-oxo-1H-pyridin-3-yl)sulfonyl]-2-[(4S)-2,2,4-trimethylpyrrolidin-1-yl]pyridine-3-carboxamide], the EC30 under setting [1] is less than 3 µM.

As to `C[C@@H]1CN(c2nc(C(C)(C)C)c([C@@H](O)[C@H](O)C3CCCC3)cc2C(=O)NS(=O)(=O)c2cccc(N)n2)C(C)(C)C1` (single isomer, unassigned) [Compound 2069], the EC30 under setting [1] is less than 3 µM.

On to `CCOc1ccc(-c2ccc(C(=O)NS(=O)(=O)c3nccnc3N)c(Oc3ccc(C)cc3C)n2)cc1` [Compound 434, N-(3-aminopyrazin-2-yl)sulfonyl-2-(2,4-dimethylphenoxy)-6-(4-ethoxyphenyl)pyridine-3-carboxamide], for which the EC30 entry under setting [2] is recorded as “+++ (“+++” means <3 uM)”.

Take `CC(C)COc1ccn(-c2ccc(C(=O)NS(=O)(=O)c3cccnc3N)c(N3C[C@@H](C)CC3(C)C)n2)n1` [Compound 2191, N-[(2-amino-3-pyridyl)sulfonyl]-6-(3-isobutoxypyrazol-1-yl)-2-[(4S)-2,2,4-trimethylpyrrolidin-1-yl]pyridine-3-carboxamide]: the EC30 under setting [1] is less than 3 µM.

With `Cc1cc(C)c(Oc2nc(-c3cc(OCC(C)C)ccc3F)ccc2C(=O)NS(=O)(=O)c2cccc(N)n2)c(C)c1` [Compound 351, N-[(6-amino-2-pyridyl)sulfonyl]-6-(2-fluoro-5-isobutoxy-phenyl)-2-(2,4,6-trimethylphenoxy)pyridine-3-carboxamide], the EC30 entry under setting [2] is on record as “+++ (“+++” means <3 uM)”.

For `Cc1ccc(-c2ccc(C(=O)NS(=O)(=O)c3cccnc3N)c(N3C[C@@H](C)CC3(C)C)n2)cc1F` [Compound 2345, N-[(2-amino-3-pyridyl)sulfonyl]-6-(3-fluoro-4-methyl-phenyl)-2-[(4S)-2,2,4-trimethylpyrrolidin-1-yl]pyridine-3-carboxamide], the EC30 under setting [1] is less than 3 µM.

As to `CCOC(=O)c1ccc(OC)c(-c2cnc(N3CC(C)CC3(C)C)c(C(=O)NS(=O)(=O)c3cccc(N)n3)c2)c1` (stereo not shown) [Compound 2134, ethyl 3-[5-[(6-amino-2-pyridyl)sulfonylcarbamoyl]-6-(2,2,4-trimethylpyrrolidin-1-yl)-3-pyridyl]-4-methoxy-benzoate], the EC30 under setting [1] is less than 3 µM.

On to `C[C@@H]1CN(c2nc(-c3cccc(C(F)(F)F)c3)ccc2C(=O)NS(=O)(=O)c2cccc(N)n2)C(C)(C)C1` [Compound 2392, N-[(6-amino-2-pyridyl)sulfonyl]-6-[3-(trifluoromethyl)phenyl]-2-[(4S)-2,2,4-trimethylpyrrolidin-1-yl]pyridine-3-carboxamide], for which, under setting [1], the 30% effect concentration (EC30) is less than 3 µM.

Consider `CC(C)(C)c1cc(C(=O)NS(=O)(=O)c2ccccc2)n(Cc2cc(C(F)(F)F)ccc2F)n1` [Compound 35, N-(benzenesulfonyl)-5-tert-butyl-2-[[2-fluoro-5-(trifluoromethyl)phenyl]methyl]pyrazole-3-carboxamide], for which the EC30 result under setting [2] was “+++ (“+++” means <3 uM)”.

For the compound `CC(C)Oc1ccc(-c2ccc(C(=O)NS(=O)(=O)c3cccc(N)n3)c(NC(C)c3ccccc3)n2)cn1` (stereo not shown) [Compound 766, N-[(6-amino-2-pyridyl)sulfonyl]-6-(6-isopropoxy-3-pyridyl)-2-(1-phenylethylamino)pyridine-3-carboxamide], the EC30 result under setting [2] was “++ (“++” means between 3 uM and 10 uM)”.

Turning to `CC(C)COc1cccc(-c2ccc(C(=O)NS(=O)(=O)c3cccc(N)n3)c(N3CC(C)CC3(C)C)n2)c1` (stereo not shown) [Compound 695, N-[(6-amino-2-pyridyl)sulfonyl]-6-(3-isobutoxyphenyl)-2-(2,2,4-trimethylpyrrolidin-1-yl)pyridine-3-carboxamide], the EC30 entry under setting [2] was “+++ (“+++” means <3 uM)”.

For the compound `CC1CN(c2ncccc2C(=O)NS(=O)(=O)c2cccc(Oc3ccc(-n4ccnc4)cc3)n2)C(C)(C)C1` (stereo not shown) [Compound 2441, N—[[6-(4-imidazol-1-ylphenoxy)-2-pyridyl]sulfonyl]-2-(2,2,4-trimethylpyrrolidin-1-yl)pyridine-3-carboxamide], the EC30 under setting [1] fell in the range of 3 to 10 µM.

On to `CC(C)Oc1ccc(-c2ccc(C(=O)NS(=O)(=O)c3cccc(N)n3)c(N3CCCC3C(C)(C)C)n2)cn1` (stereo not shown) [Compound 597, N-[(6-amino-2-pyridyl)sulfonyl]-2-(2-tert-butylpyrrolidin-1-yl)-6-(6-isopropoxy-3-pyridyl)pyridine-3-carboxamide], for which the EC30 entry under setting [2] is on record as “+++ (“+++” means <3 uM)”.

`Cc1cccc(C)c1Cn1nc(C(C)(C)C)cc1C(=O)NS(=O)(=O)c1cccc(N)c1` [Compound 185, N-(3-aminophenyl)sulfonyl-5-tert-butyl-2-[(2,6-dimethylphenyl)methyl]pyrazole-3-carboxamide]: the EC30 result under setting [2] is given as “+++ (“+++” means <3 uM)”.

Take `Cc1cc(C)c(CN2Cc3ccccc3C2C(=O)NS(=O)(=O)c2cccc(N)c2)c(C)c1` (stereo not shown) [Compound 90, N-(3-aminophenyl)sulfonyl-2-[(2,4,6-trimethylphenyl)methyl]isoindoline-1-carboxamide]: under setting [2], the EC30 entry is given as “+++ (“+++” means <3 uM)”.

For `Cc1ccc(-c2nc3c(cc2C(=O)NS(=O)(=O)c2nccnc2N)CCCC3(C)C)cc1` [Compound 707, N-(3-aminopyrazin-2-yl)sulfonyl-8,8-dimethyl-2-(p-tolyl)-6,7-dihydro-5H-quinoline-3-carboxamide], the concentration for an effect of 30% (EC30) entry under setting [2] is on record as “+ (“+” means greater than 10 uM)”.

On to `CC(C)COc1cc(F)cc(-c2ccc(C(=O)NS(=O)(=O)C3CCNC3=O)c(N3CC(C)CC3(C)C)n2)c1` (stereo not shown) [Compound 466, 6-(3-fluoro-5-isobutoxy-phenyl)-N-(2-oxopyrrolidin-3-yl)sulfonyl-2-(2,2,4-trimethylpyrrolidin-1-yl)pyridine-3-carboxamide], for which the EC30 result under setting [2] is listed as “+++ (“+++” means <3 uM)”.

In the case of `CC1CN(c2ncccc2C(=O)NS(=O)(=O)c2cccc(Nc3ccc(NC(=O)OC(C)(C)C)cc3)n2)C(C)(C)C1` (stereo not shown) [Compound 2743], under setting [1], the EC30 was less than 3 µM.

Turning to `COc1ccc(OC)c(-c2cc(C(=O)NS(=O)(=O)c3ccccc3)n(Cc3c(C)cccc3C)n2)c1` [Compound 100, N-(benzenesulfonyl)-5-(2,5-dimethoxyphenyl)-2-[(2,6-dimethylphenyl)methyl]pyrazole-3-carboxamide], the EC30 entry under setting [2] is on record as “+++ (“+++” means <3 uM)”.

In the case of `Cc1cc(C)c(Cn2nc(C(C)(C)C)cc2C(=O)NS(=O)(=O)c2cccc3c2ccn3CCO)c(C)c1` [Compound 188, 5-tert-butyl-N-[1-(2-hydroxyethyl)indol-4-yl]sulfonyl-2-[(2,4,6-trimethylphenyl)methyl]pyrazole-3-carboxamide], the EC30 result under setting [2] is “+++ (“+++” means <3 uM)”.

With `CC1CN(c2ncccc2C(=O)NS(=O)(=O)c2cccc(Oc3c(F)cc(F)cc3F)n2)C(C)(C)C1` (stereo not shown) [Compound 2654, N—[[6-(2,4,6-trifluorophenoxy)-2-pyridyl]sulfonyl]-2-(2,2,4-trimethylpyrrolidin-1-yl)pyridine-3-carboxamide], the EC30 under setting [1] was less than 3 µM.

Regarding `Cc1cccc(-c2ccc(C(=O)NS(=O)(=O)c3ccc[nH]c3=O)c(N3C[C@@H](C)CC3(C)C)n2)c1` [Compound 2424, 6-(m-tolyl)-N-[(2-oxo-1H-pyridin-3-yl)sulfonyl]-2-[(4S)-2,2,4-trimethylpyrrolidin-1-yl]pyridine-3-carboxamide], the EC30 under setting [1] was less than 3 µM.

Turning to `CC(C)Oc1ccc(-c2ccc(C(=O)NS(=O)(=O)c3cccc(N)n3)c(N3CCCC(C(C)C)C3)n2)cn1` (stereo not shown) [Compound 114, N-[(6-amino-2-pyridyl)sulfonyl]-6-(6-isopropoxy-3-pyridyl)-2-(3-isopropyl-1-piperidyl)pyridine-3-carboxamide], the EC30 entry under setting [2] is recorded as “+++ (“+++” means <3 uM)”.

For `CC(C)COc1cc(F)cc(-c2ccc(C(=O)NS(=O)(=O)c3ccccc3)c(N3CCC(C)(C)CC3)n2)c1` [Compound 583, N-(benzenesulfonyl)-2-(4,4-dimethyl-1-piperidyl)-6-(3-fluoro-5-isobutoxy-phenyl)pyridine-3-carboxamide], the EC30 result under setting [2] is “+++ (“+++” means <3 uM)”.

The EC30 is the concentration at which the effect reaches the 30% level.
